From patent US20240384350A1, “METHODS OF TREATING CANCER WITH KINASE INHIBITORS” (BOARD OF REGENTS, THE UNIVERSITY OF TEXAS SYSTEM, priority 2021, published 2024)

How the values were obtained:
Assay in all cases: Ba/F3 drug screening, Cell Titer Glo, IC50 Mut/WT
Format in all cases: cell-based
EGFR L858R/L792H = target: T1, EGFR L858R/L792H (Homo sapiens, UniProt P00533, L792H/L858R); settings: Ba/F3 cells, EGFR L858R/L792H (PACC), Mut/WT
T1 construct: expressed in transfected cells; host or cells: Ba/F3

EGFR G719A = target: T2, EGFR G719A (Homo sapiens, UniProt P00533, G719A); settings: Ba/F3 cells, EGFR G719A (PACC), Mut/WT
T2 construct: expressed in transfected cells; host or cells: Ba/F3

EGFR V769L = target: T3, EGFR V769L (Homo sapiens, UniProt P00533, V769L); settings: Ba/F3 cells, EGFR V769L (PACC), Mut/WT
T3 construct: expressed in transfected cells; host or cells: Ba/F3

EGFR Ex19del T854I = target: T4, EGFR Ex19del T854I (Homo sapiens, UniProt P00533, DEL746-750/T854I); settings: Ba/F3 cells, EGFR Ex19del T854I (PACC), Mut/WT
T4 construct: expressed in transfected cells; host or cells: Ba/F3 (retroviral transduction, pBabe-Puro based vectors)

EGFR E709K G719S = target: T5, EGFR E709K G719S (Homo sapiens, UniProt P00533, E709K/G719S); settings: Ba/F3 cells, EGFR E709K G719S (PACC), Mut/WT
T5 construct: expressed in transfected cells; host or cells: Ba/F3

EGFR Ex19del L718V = target: T6, EGFR Ex19del L718V (Homo sapiens, UniProt P00533, DEL746-750/L718V); settings: Ba/F3 cells, EGFR Ex19del L718V (PACC), Mut/WT
T6 construct: expressed in transfected cells; host or cells: Ba/F3

EGFR Ex19del T790M C797S = target: T7, EGFR Ex19del T790M C797S (Homo sapiens, UniProt P00533, C797S/DEL746-750/T790M); settings: T790M-like-3R, 72 hours
T7 construct: expressed in transfected cells; host or cells: Ba/F3

EGFR L747S = target: T8, EGFR L747S (Homo sapiens, UniProt P00533, L747S); settings: Ba/F3 cells, EGFR L747S (PACC), Mut/WT
T8 construct: expressed in transfected cells; host or cells: Ba/F3

EGFR K754E = target: T9, EGFR K754E (Homo sapiens, UniProt P00533, K754E); settings: Classical-Like, 72 hours
T9 construct: expressed in transfected cells; host or cells: Ba/F3 cells, retroviral pBabe-Puro vector

EGFR Ex19del L718Q = target: T10, EGFR Ex19del L718Q (Homo sapiens, UniProt P00533, DEL746-750/L718Q); settings: Ba/F3 cells, EGFR Ex19del L718Q (PACC), Mut/WT
T10 construct: expressed in transfected cells; host or cells: Ba/F3

EGFR G719A T790M = target: T11, EGFR G719A T790M (Homo sapiens, UniProt P00533, G719A/T790M); settings: T790M-like-3S, 72 hours
T11 construct: expressed in transfected cells; host or cells: Ba/F3

EGFR A767insASV = target: T12, EGFR A767insASV (Homo sapiens, UniProt P00533, DUP767-769); settings: Ex20, 72 hours
T12 construct: expressed in transfected cells; host or cells: Ba/F3 cells, retroviral pBabe-Puro vector

EGFR G724S T790M = target: T13, EGFR G724S T790M (Homo sapiens, UniProt P00533, G724S/T790M); settings: T790M-like-3R, 72 hours
T13 construct: expressed in transfected cells; host or cells: Ba/F3

EGFR Ex19del G724S = target: T14, EGFR Ex19del G724S (Homo sapiens, UniProt P00533, DEL746-750/G724S); settings: Ba/F3 cells, EGFR Ex19del G724S (PACC), Mut/WT
T14 construct: expressed in transfected cells; host or cells: Ba/F3

EGFR V774M = target: T15, EGFR V774M (Homo sapiens, UniProt P00533, V774M); settings: Ba/F3 cells, EGFR V774M (PACC), Mut/WT
T15 construct: host or cells: Ba/F3

EGFR Ex19del/C797S = target: T16, EGFR Ex19del/C797S (Homo sapiens, UniProt P00533, C797S/DEL746-750); settings: Ba/F3 cells, EGFR Ex19del/C797S (PACC), Mut/WT
T16 construct: expressed in transfected cells; host or cells: Ba/F3

EGFR G724S = target: T17, EGFR G724S (Homo sapiens, UniProt P00533, G724S); settings: Ba/F3 cells, EGFR G724S (PACC), Mut/WT
T17 construct: expressed in transfected cells; host or cells: Ba/F3

EGFR E709_T710del insD = target: T18, EGFR E709_T710del insD (Homo sapiens, UniProt P00533, DEL709-709/T710D); settings: Ba/F3 cells, EGFR E709_T710del insD (PACC), Mut/WT
T18 construct: expressed in transfected cells; host or cells: Ba/F3

EGFR Ex19del G796S = target: T19, EGFR Ex19del G796S (Homo sapiens, UniProt P00533, DEL746-750/G796S); settings: Ba/F3 cells, EGFR Ex19del G796S (PACC), Mut/WT
T19 construct: expressed in transfected cells; host or cells: Ba/F3

EGFR I740dupIPVAK = settings: Ba/F3 cells, EGFR I740dupIPVAK (PACC), Mut/WT
EGFR S768I/T790M = target: T20, EGFR S768I/T790M (Homo sapiens, UniProt P00533, S768I/T790M); settings: T790M-like-3S, 72 hours
T20 construct: expressed in transfected cells; host or cells: Ba/F3

EGFR L858R G724S = target: T21, EGFR L858R G724S (Homo sapiens, UniProt P00533, G724S/L858R); settings: Ba/F3 cells, EGFR L858R G724S (PACC), Mut/WT
T21 construct: expressed in transfected cells; host or cells: Ba/F3 (retroviral transduction, pBabe-Puro based vectors)

EGFR L858R = target: T22, EGFR L858R (Homo sapiens, UniProt P00533, L858R); settings: Classical-Like, 72 hours
T22 construct: expressed in transfected cells; host or cells: Ba/F3 cells, retroviral pBabe-Puro vector

EGFR L858R T790M L718V = target: T23, EGFR L858R T790M L718V (Homo sapiens, UniProt P00533, L718V/L858R/T790M); settings: T790M-like-3R, 72 hours
T23 construct: expressed in transfected cells; host or cells: Ba/F3

EGFR R776C = target: T24, EGFR R776C (Homo sapiens, UniProt P00533, R776C); settings: Ba/F3 cells, EGFR R776C (PACC), Mut/WT
T24 construct: host or cells: Ba/F3

EGFR S768I = target: T25, EGFR S768I (Homo sapiens, UniProt P00533, S768I); settings: Ba/F3 cells, EGFR S768I (PACC), Mut/WT
T25 construct: expressed in transfected cells; host or cells: Ba/F3

C=CC(=O)Nc1cccc(Oc2nc(Nc3ccc(N4CCN(C)CC4)cc3)nc3ccsc23)c1 [Olmutinib] was tested, and the “ratio of the IC50 value for cells with a PACC EGFR mutation to the IC50 value for cells with wildtype EGFR” value (“ratio of the IC50 value for cells” for short) (EGFR L858R/L792H) was 0.1405, the “ratio of the IC50 value for cells” value (EGFR G719A) was 0.141 and the “ratio of the IC50 value for cells” value (EGFR V769L) was 0.3121. For the same molecule, the “ratio of the IC50 value for cells” value (EGFR Ex19del T854I) was 1.31, the “ratio of the IC50 value for cells” value (EGFR E709K G719S) was 0.3569 and the “ratio of the IC50 value for cells” value (EGFR Ex19del L718V) was 0.0862. For the same molecule, the “ratio of IC50 for cells with mutant EGFR to IC50 for cells with wildtype EGFR (Mut/WT)” value (from here on “ratio of IC50 for cells with mutant EGFR”) (EGFR Ex19del T790M C797S) was 1.926, the “ratio of the IC50 value for cells” value (EGFR L747S) was 0.06291 and the “ratio of IC50 for cells with mutant EGFR” value (EGFR K754E) was 0.008838. For the same molecule, the “ratio of the IC50 value for cells” value (EGFR Ex19del L718Q) was 0.03389, the “ratio of IC50 for cells with mutant EGFR” value (EGFR G719A T790M) was 0.0114 and the “ratio of IC50 for cells with mutant EGFR” value (EGFR A767insASV) was 0.6792. For the same molecule, the “ratio of IC50 for cells with mutant EGFR” value (EGFR G724S T790M) was 0.01985, the “ratio of the IC50 value for cells” value (EGFR Ex19del G724S) was 0.268 and the “ratio of the IC50 value for cells” value (EGFR V774M) was 0.06988. The “ratio of the IC50 value for cells” value (EGFR Ex19del/C797S) was 2.14, the “ratio of the IC50 value for cells” value (EGFR G724S) was 0.1827 and the “ratio of the IC50 value for cells” value (EGFR E709_T710del insD) was 0.2299. For the same molecule, the “ratio of the IC50 value for cells” value (EGFR Ex19del G796S) was 0.8234, the “ratio of the IC50 value for cells” value (EGFR I740dupIPVAK) was 0.1715 and the “ratio of IC50 for cells with mutant EGFR” value (EGFR S768I/T790M) was 0.0215. For the same molecule, the “ratio of the IC50 value for cells” value (EGFR L858R G724S) was 0.02052, the “ratio of IC50 for cells with mutant EGFR” value (EGFR L858R) was 0.01716 and the “ratio of IC50 for cells with mutant EGFR” value (EGFR L858R T790M L718V) was 0.8754. For the same molecule, the “ratio of the IC50 value for cells” value (EGFR R776C) was 0.5131 and the “ratio of the IC50 value for cells” value (EGFR S768I) was 0.007216.
